Values joined by “and” are separate entries in the source; they are usually repeats but may differ in a detail not shown here. Identical values can stand only once. “Also recorded” adds a separate entry of the source. Like-named read-outs stand apart in the source and are kept apart here.
Tests used:
[1] = biological target: T1, DRD2 F1103.28A (Homo sapiens, UniProt P14416, F110A); type: binding; design: expressed in transfected cells; host or cells: HEK293T (ATCC CRL-11268)
[2] = biological target: T2, DRD2 F1103.28L (Homo sapiens, UniProt P14416, F110L); experiment: β-arrestin2 recruitment (Tango), mutant; type: cell-based
T2 construct: expressed in transfected cells; host or cells: HEK293T (ATCC CRL-11268)
T2 sequence (P14416 whole entry F110L): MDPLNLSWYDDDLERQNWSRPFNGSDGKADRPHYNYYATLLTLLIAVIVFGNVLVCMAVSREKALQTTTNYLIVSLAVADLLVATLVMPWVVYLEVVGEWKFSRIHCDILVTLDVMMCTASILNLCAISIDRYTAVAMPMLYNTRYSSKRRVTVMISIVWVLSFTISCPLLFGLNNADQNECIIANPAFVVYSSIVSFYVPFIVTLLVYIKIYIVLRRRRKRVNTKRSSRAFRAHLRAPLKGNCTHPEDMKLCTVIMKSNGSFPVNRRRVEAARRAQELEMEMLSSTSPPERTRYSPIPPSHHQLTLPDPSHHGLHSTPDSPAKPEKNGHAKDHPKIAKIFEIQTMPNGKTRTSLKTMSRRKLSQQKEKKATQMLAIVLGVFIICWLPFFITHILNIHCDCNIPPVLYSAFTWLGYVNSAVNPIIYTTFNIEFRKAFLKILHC

[3] = biological target: T3, DRD4 (D4.4 variant) (Homo sapiens, UniProt P21917); experiment: β-arrestin2 recruitment (Tango); type: cell-based
T3 sequence (P21917 1-419): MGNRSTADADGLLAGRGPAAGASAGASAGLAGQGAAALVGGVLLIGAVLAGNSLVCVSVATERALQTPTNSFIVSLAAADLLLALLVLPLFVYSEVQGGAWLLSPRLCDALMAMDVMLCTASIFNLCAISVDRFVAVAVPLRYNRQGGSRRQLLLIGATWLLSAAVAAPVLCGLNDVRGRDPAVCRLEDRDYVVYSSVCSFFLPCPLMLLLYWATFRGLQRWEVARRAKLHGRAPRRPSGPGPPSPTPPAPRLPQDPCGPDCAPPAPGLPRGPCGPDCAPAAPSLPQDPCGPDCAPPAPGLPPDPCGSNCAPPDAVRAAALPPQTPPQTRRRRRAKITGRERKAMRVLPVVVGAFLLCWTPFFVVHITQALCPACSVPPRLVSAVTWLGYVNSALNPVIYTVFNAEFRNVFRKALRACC

[4] = biological target: T4, DRD3 F1063.28A (Homo sapiens, UniProt P35462, F106A); experiment: biochemical; type: binding
T4 sequence (P35462 whole entry F106A): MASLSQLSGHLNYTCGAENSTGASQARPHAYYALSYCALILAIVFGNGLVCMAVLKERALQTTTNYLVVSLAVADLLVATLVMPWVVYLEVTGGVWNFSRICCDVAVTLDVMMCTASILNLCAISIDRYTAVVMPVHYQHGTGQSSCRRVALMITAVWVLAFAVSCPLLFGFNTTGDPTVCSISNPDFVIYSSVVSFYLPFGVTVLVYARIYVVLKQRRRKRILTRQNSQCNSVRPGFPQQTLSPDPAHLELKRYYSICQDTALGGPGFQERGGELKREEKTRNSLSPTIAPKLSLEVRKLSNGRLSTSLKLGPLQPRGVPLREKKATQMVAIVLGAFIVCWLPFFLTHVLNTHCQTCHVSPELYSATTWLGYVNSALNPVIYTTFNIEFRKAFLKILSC

[5] = biological target: T4, DRD3 F1063.28A; experiment: cell-based; type: cell-based
[6] = biological target: T1, DRD2 F1103.28A; experiment: Gαi/o-mediated cAMP inhibition (GloSensor), mutant; type: cell-based; design: expressed in transfected cells; host or cells: HEK293T (ATCC CRL-11268)
[7] = biological target: T5, DRD3 (Homo sapiens, UniProt P35462); experiment: β-arrestin2 recruitment (Tango); type: cell-based; conditions: for Emax: read-out: Emax relative to quinpirole response
T5 sequence (P35462 whole entry): as the sequence (P35462 whole entry F106A) above, with A106F counted along it

[8] = biological target: T6, DRD4 (D4.4 variant) wild-type (Homo sapiens, UniProt P21917); experiment: Radioligand competition binding, [3H]-N-methylspiperone
T6 sequence (P21917 1-419): T3 sequence (P21917 1-419)

[9] = biological target: DRD3 wild-type (Homo sapiens, UniProt P35462); experiment: as above
Sequence of DRD3 wild-type (P35462 whole entry): as the sequence (P35462 whole entry F106A) above, with A106F counted along it

[10] = biological target: T2, DRD2 F1103.28L; experiment: Gαi/o-mediated cAMP inhibition (GloSensor), mutant; type: cell-based
[11] = biological target: T7, DRD2 (D2 long receptor) (Homo sapiens, UniProt P14416); experiment: Gαi/o-mediated cAMP inhibition (GloSensor split-luciferase cAMP reporter), HEK293T; type: cell-based; conditions: for response, Fig_S11d dose-response source data: replicate values; for Emax: HEK-293T, read-out: Emax relative to quinpirole response;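 on all read-outs here: compounds applied 15 min at room temperature, then luciferin plus 400 nM isoproterenol to raise cAMP through endogenous β2-adrenergic receptors, luminescence read 15 min later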
T7 sequence (P14416 whole entry): as the sequence (P14416 whole entry F110L) above, with L110F counted along it

[12] = biological target: T1, DRD2 F1103.28A; experiment: β-arrestin2 recruitment (Tango), mutant; type: cell-based; design: expressed in transfected cells; host or cells: HEK293T (ATCC CRL-11268)
[13] = biological target: T7, DRD2 (D2 long receptor); experiment: β-arrestin2 recruitment (Tango), HTLA cells; type: cell-based; conditions: for response, Fig_S11e dose-response source data: replicate values; for Emax: HTLA, read-out: Emax relative to quinpirole response
[14] = biological target: DRD2 (D2 long receptor) wild-type (Homo sapiens, UniProt P14416); experiment: Radioligand competition binding, [3H]-N-methylspiperone, HEK293T membranes
Sequence of DRD2 (D2 long receptor) wild-type (P14416 whole entry): as the sequence (P14416 whole entry F110L) above, with L110F counted along it

[15] = biological target: T3, DRD4 (D4.4 variant); experiment: Gαi/o-mediated cAMP inhibition (GloSensor); type: cell-based
[16] = biological target: T5, DRD3; experiment: Gαi/o-mediated cAMP inhibition (GloSensor); type: cell-based
[17] = biological target: T8, DRD2 S1975.46G (Homo sapiens, UniProt P14416, S197G); experiment: Gαi/o-mediated cAMP inhibition (GloSensor), mutant; type: cell-based; conditions: DRD2 Ser197^5.46Gly; G-protein assay
T8 construct: expressed in transfected cells; host or cells: HEK293T (ATCC CRL-11268)
T8 sequence (P14416 whole entry S197G): as the sequence (P14416 whole entry F110L) above, with L110F, S197G counted along it

[18] = biological target: T1, DRD2 F1103.28A; conditions: cited from earlier work
[19] = read-out: Emax relative to quinpirole response

T1 sequence (P14416 whole entry F110A): as the sequence (P14416 whole entry F110L) above, with L110A counted along it

For CCOc1cccc2cc(C(C)NCC3(O)CCCCCCC3)oc12 (centres unmarked) [O4LE8], the Ki ([1]; DRD2 F1103.28A, read-out: pKi ± SEM (converted)) was 174 nM, the “affinity increase (binding enhanced), mutant vs wild type” value ([1]; DRD2 Phe110^3.28Ala vs wild-type DRD2) was 8.47 fold and the EC50 [2] was 83.2 nM. For the same compound, the Emax [2, 19] was 12.9%, the EC50 ([3]; DRD4, Tango, read-out: EC50 ± SEM) was 7.72 ± 3.42 µM and the Emax ([3]; read-out: Emax relative to quinpirole response, DRD4, Tango) was 22.3%. The Ki [4] was 209 nM, the “affinity decreased, mutant vs wild type” value ([4]; DRD3 Phe106^3.28Ala vs wild-type DRD3) was 1.62 fold and the EC50 [5] was > 10 µM. For the same compound, the EC50 [6] was > 10 µM, the EC50 ([7]; DRD3, Tango, read-out: EC50 ± SEM) was 2570 ± 331 nM and the Emax ([7]; DRD3, Tango) was 12.6%. It also gave a Ki ([8]; DRD4, [3H]-methylspiperone (0.8-1.0 nM), read-out: Ki) of 3.47 µM, a Ki ([9]; DRD3 wild-type, read-out: pKi ± SEM (converted)) of 126 nM and an EC50 ([10]; DRD2 F1103.28L (b138 head prints DRD2 F1063.28L)) of 5.14 ± 1.34 nM. The Emax ([10]; read-out: Emax relative to quinpirole response, DRD2 F1103.28L) was 79.4%, the EC50 ([11]; DRD2, agonist, Gαi/o-mediated cAMP inhibition, read-out: EC50 ± SEM) was 25.1 ± 4.15 nM and the “response, Fig_S11d dose-response source data” value ([11]; Log[Drug] -6.52) was 81.714. The “response, Fig_S11d dose-response source data” value ([11]; Log[Drug] -7) was 60.3486 and 66.6804 and 72.7008 and 60.4684 and 68.6286 and 77.0139 and 66.1563 and 80.9789 and 74.7009, the “response, Fig_S11d dose-response source data” value ([11]; Log[Drug] -7.52) was 64.1546 and 42.5815 and 54.9164 and 48.6839 and 50.89 and 54.6944 and 53.231 and 58.2356 and 61.6484 and the “response, Fig_S11d dose-response source data” value ([11]; Log[Drug] -8) was 30.3505 and 38.7582 and 38.4468 and 27.6925 and 25.4414 and 37.7886 and 33.6203 and 36.6384 and 38.4211. The “response, Fig_S11d dose-response source data” value ([11]; Log[Drug] -8.52) was 18.8806 and 26.4753 and 29.6239 and 29.8085 and 24.7211 and 36.5506 and 30.7552 and 20.988 and 25.8907, the “response, Fig_S11d dose-response source data” value ([11]; Log[Drug] -9) was 10.6977 and 6.477 and 22.1503 and -4.7682 and 5.553 and 28.1427 and 15.0029 and 22.6689 and 22.3633 and the “response, Fig_S11d dose-response source data” value ([11]; Log[Drug] -9.52) was 13.483 and 14.7978 and 22.2541 and 0.3305 and -1.0989 and 21.5583 and 10.5969 and 17.6134 and 23.573. The “response, Fig_S11d dose-response source data” value ([11]; Log[Drug] -10) was 5.075 and 27.3403 and 11.8049 and -5.4661 and -6.0063 and 15.8293 and -4.1493 and 12.6598 and 11.3991, the “response, Fig_S11d dose-response source data” value ([11]; Log[Drug] -10.52) was 26.6829 and 14.6767 and 28.6205 and 3.955 and -0.615 and 13.1617 and 5.592 and 6.484 and 18.0973 and the “response, Fig_S11d dose-response source data” value ([11]; Log[Drug] -11) was 14.0885 and 21.7351 and 14.8497 and 2.548 and 0.2179 and 18.1479 and 4.5736 and 10.5841 and 33.4421. The “response, Fig_S11d dose-response source data” value ([11]; Log[Drug] -11.52) was 14.3134 and 21.1815 and -2.3983 and 1.163 and 10.5955 and 20.3089 and -4.0602 and -1.4624 and 2.396, the “response, Fig_S11d dose-response source data” value ([11]; Log[Drug] -12) was -12.3977 and -4.8203 and -3.3671 and -5.6011 and 0.2067 and 18.6656 and 6.267 and -13.7 and 1.135 and the Emax ([11]; DRD2, cAMP inhibition) was 93.5%. For the same compound, the EC50 [12] was > 10 µM, the EC50 ([13]; DRD2, β-arrestin2 recruitment (Tango), read-out: EC50 ± SEM) was 958 ± 554 nM and the “response, Fig_S11e dose-response source data” value ([13]; Log[Drug] -6.52) was 25.1709. For the same compound, the “response, Fig_S11e dose-response source data” value ([13]; Log[Drug] -7) was 14.6742 and 15.2038 and 14.2094 and 15.768 and 13.8247 and 10.963 and 9.8559 and 9.763 and 11.4407, the “response, Fig_S11e dose-response source data” value ([13]; Log[Drug] -7.52) was 7.064 and 7.803 and 7.822 and 6.018 and 6.959 and 8.6294 and 5.868 and 6.2292 and 7.2281 and the “response, Fig_S11e dose-response source data” value ([13]; Log[Drug] -8) was 5.7468 and 5.978 and 6.62 and 5.455 and 5.722 and 6.021 and 5.454 and 5.678 and 6.204. The “response, Fig_S11e dose-response source data” value ([13]; Log[Drug] -8.52) was 5.4648 and 5.687 and 6.826 and 4.883 and 5.2931 and 6.0726 and 5.125 and 5.623 and 6.271, the “response, Fig_S11e dose-response source data” value ([13]; Log[Drug] -9) was 5.367 and 5.481 and 6.509 and 5.152 and 5.102 and 5.412 and 5.069 and 5.184 and 5.586 and the “response, Fig_S11e dose-response source data” value ([13]; Log[Drug] -9.52) was 5.23 and 5.307 and 5.645 and 4.9908 and 4.966 and 5.083 and 5.0713 and 4.923 and 5.288. The “response, Fig_S11e dose-response source data” value ([13]; Log[Drug] -10) was 5.15 and 5.211 and 5.175 and 4.9 and 4.98 and 4.8838 and 4.832 and 4.97 and 4.906, the “response, Fig_S11e dose-response source data” value ([13]; Log[Drug] -10.52) was 5.0534 and 4.953 and 5.08 and 4.774 (2×) and 4.9 and 4.962 and 4.816 and 4.832 and the “response, Fig_S11e dose-response source data” value ([13]; Log[Drug] -11) was 5.0347 and 4.933 and 5.013 and 4.706 and 4.819 and 4.763 and 4.774 (2×) and 4.732. The “response, Fig_S11e dose-response source data” value ([13]; Log[Drug] -11.52) was 4.924 and 5.294 and 5.1115 and 4.785 and 5.303 and 4.761 and 4.741 and 4.765 and 4.928, the “response, Fig_S11e dose-response source data” value ([13]; Log[Drug] -12) was 4.887 and 4.896 and 4.876 and 4.741 and 5.073 and 4.844 and 4.843 and 5.092 and 4.723 and the Emax ([13]; DRD2, Tango) was 54%. For the same compound, the Ki ([14]; DRD2, [3H]-methylspiperone (0.8-1.0 nM), read-out: Ki) was 1440 nM and the EC50 ([15]; DRD4, agonist, cAMP inhibition, read-out: EC50 ± SEM) was > 10 µM.
With CC(CCc1ccccc1[N+](=O)[O-])NCC1(O)CCCCC1 (centres unmarked) [O7LE6] the EC50 [3] was > 10 µM, the “β-arrestin2 recruitment agonist activity” value ([3]; DRD4, Tango) was “no DRD4 activity” and the EC50 [16] was 1.96 nM. The Emax [16, 19] was 82.7%, the EC50 [7] was 117 nM and the Emax [7] was 88.5%. The “agonism after serine to glycine substitution” value [17] was “substantially diminished”, the Ki ([8]; Ki) was > 10 µM and the Ki [9] was 174 nM. The EC50 [11] was 1.13 nM, the Emax [11] was 100% and the EC50 [13] was 6.95 nM. For the same compound, the Emax [13] was 85.3%, the Ki ([14]; Ki) was 1410 nM and the EC50 [15] was > 10 µM. The “G protein agonist activity” value ([15]; DRD4, cAMP inhibition) was “no DRD4 activity”.
For CNc1cc(OC)c(C(=O)NC2CCN(Cc3ccccc3)C2C)cc1Cl (centres unmarked) [nemonapride], the “effect of Phe110^3.28Ala mutation on binding” value [18] is listed as “did not enhance the binding; also recorded: didn’t enhance the binding”.
In the case of Cc1nc2n(c(=O)c1CCN1CCC(c3noc4cc(F)ccc34)CC1)CCCC2 [risperidone], the “effect of Phe110^3.28Ala mutation on binding” value ([18]; previous published studies) is given as “did not enhance the binding; also recorded: didn’t enhance the binding”.

Source: publication PMC7044277 (Nature Communications, 2020)
